Experimental data from patent US20240246942A1, “KINASE INHIBITORS FOR THE TREATMENT OF NEURODEGENERATIVE DISEASES” (priority 2020, published 2024).

Assays:
Experiment in all cases: biochemical
[1] = target: T1, panel of 374 wild-type kinases (Homo sapiens, UniProt Q8WXR4); settings: read-out: % Enzyme Activity (relative to DMSO controls), MYO3b
T1 construct: purchased Reaction Biology Corporation
T1 sequence (Q8WXR4 1-1341): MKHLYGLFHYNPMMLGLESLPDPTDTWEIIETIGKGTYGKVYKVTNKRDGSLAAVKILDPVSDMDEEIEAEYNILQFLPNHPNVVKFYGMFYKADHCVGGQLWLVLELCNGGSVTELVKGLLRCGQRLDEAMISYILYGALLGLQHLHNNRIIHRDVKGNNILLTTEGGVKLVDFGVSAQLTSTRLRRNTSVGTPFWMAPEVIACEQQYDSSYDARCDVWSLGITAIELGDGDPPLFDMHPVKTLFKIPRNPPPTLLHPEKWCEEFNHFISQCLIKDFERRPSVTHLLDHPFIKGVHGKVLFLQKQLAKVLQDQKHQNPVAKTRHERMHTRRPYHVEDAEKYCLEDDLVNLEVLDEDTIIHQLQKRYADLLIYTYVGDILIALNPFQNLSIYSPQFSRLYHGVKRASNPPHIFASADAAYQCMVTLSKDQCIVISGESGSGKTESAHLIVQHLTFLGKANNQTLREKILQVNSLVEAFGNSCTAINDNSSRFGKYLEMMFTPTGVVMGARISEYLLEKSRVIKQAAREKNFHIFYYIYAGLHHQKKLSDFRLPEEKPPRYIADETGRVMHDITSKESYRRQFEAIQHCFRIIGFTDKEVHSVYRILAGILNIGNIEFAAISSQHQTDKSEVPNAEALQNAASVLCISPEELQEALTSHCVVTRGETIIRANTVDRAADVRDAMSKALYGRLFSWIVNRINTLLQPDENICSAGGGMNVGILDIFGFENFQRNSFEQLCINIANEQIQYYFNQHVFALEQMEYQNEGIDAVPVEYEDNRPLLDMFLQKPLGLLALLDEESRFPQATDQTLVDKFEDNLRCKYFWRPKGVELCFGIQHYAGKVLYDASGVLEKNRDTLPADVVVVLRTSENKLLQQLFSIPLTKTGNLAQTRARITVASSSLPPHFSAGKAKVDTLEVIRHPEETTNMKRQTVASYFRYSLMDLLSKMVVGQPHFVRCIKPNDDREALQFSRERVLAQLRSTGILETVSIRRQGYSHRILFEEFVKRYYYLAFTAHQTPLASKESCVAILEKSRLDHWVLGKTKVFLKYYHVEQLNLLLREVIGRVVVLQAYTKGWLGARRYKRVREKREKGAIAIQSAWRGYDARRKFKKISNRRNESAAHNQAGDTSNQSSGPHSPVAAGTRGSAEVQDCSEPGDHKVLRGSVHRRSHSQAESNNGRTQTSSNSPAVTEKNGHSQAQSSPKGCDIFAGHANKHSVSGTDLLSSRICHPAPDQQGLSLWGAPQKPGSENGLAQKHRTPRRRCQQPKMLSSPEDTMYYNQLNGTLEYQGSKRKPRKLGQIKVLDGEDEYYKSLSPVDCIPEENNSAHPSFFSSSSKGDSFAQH

[2] = target: T2, panel of 374 wild-type kinases (Homo sapiens, UniProt Q8N568); settings: read-out: % Enzyme Activity (relative to DMSO controls), DCAMKL2
T2 construct: purchased Reaction Biology Corporation
T2 sequence (Q8N568 1-766): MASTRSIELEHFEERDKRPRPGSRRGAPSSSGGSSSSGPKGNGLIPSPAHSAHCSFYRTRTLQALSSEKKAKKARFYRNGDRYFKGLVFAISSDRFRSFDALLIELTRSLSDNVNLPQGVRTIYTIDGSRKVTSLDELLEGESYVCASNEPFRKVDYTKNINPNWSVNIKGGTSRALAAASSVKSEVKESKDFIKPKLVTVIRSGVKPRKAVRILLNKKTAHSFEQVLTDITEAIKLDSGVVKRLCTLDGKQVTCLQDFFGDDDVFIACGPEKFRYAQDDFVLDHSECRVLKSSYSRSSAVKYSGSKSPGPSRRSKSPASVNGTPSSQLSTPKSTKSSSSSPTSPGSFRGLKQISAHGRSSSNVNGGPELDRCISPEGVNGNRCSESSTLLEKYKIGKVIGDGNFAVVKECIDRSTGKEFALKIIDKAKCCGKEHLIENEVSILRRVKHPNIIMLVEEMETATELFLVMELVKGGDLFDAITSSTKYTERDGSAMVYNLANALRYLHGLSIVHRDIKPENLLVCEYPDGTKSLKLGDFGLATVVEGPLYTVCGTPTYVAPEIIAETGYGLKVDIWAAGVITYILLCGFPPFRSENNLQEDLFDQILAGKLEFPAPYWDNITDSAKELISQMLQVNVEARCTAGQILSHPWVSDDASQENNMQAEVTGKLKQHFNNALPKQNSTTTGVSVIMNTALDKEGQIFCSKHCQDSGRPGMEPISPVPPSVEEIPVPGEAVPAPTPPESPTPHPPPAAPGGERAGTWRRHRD

[3] = target: T3, panel of 374 wild-type kinases (Homo sapiens, UniProt P42681); settings: read-out: % Enzyme Activity (relative to DMSO controls), kinase TXK
T3 construct: purchased Reaction Biology Corporation
T3 sequence (P42681 1-527): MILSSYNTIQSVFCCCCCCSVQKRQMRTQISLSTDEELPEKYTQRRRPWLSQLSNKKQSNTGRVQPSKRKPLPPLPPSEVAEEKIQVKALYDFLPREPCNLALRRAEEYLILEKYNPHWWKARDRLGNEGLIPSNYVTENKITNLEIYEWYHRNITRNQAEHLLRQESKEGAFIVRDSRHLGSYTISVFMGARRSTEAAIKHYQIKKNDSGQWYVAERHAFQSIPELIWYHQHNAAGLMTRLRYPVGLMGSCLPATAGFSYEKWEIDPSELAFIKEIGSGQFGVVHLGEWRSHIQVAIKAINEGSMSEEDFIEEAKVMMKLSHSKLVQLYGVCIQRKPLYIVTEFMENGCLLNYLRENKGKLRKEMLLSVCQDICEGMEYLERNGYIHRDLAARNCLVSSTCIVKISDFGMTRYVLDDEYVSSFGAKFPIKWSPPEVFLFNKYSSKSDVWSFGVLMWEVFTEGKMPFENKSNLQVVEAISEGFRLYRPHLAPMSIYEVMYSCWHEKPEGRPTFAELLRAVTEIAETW

Structure (SMILES)	remaining activity at 5 µM [1]	remaining activity at 5 µM [2]	remaining activity at 5 µM [3]	remaining activity at 10 µM ([1]; 10 uM)	remaining activity at 10 µM ([2]; 10 uM)	remaining activity at 10 µM ([3]; 10 uM)
O=C(Nc1cnn(-c2csc(C(=O)NC3COC3)c2)c1)Nc1ccccc1Cl [Compound 17, 4-(4-(3-(2-chlorophenyl)ureido)-1H-pyrazol-1-yl)-N-(oxetan-3-yl)thiophene-2-carboxamide]	128%	99.9%	89.8%	–	–	–
Cc1sc(C(=O)NC2COC2)cc1-n1cc(NC(=O)Nc2c(F)cccc2Cl)cn1 [Compound 27, 4-(4-(3-(2-chloro-6-fluorophenyl)ureido)-1H-pyrazol-1-yl)-5-methyl-N-(oxetan-3-yl)thiophene-2-carboxamide]	–	–	–	78.7%	107%	76.7%
O=C(Nc1cnn(-c2csc(C(=O)NC3COC3)c2)c1)Nc1c(F)cccc1Cl [Compound 25, 4-(4-(3-(2-chloro-6-fluorophenyl)ureido)-1H-pyrazol-1-yl)-N-(oxetan-3-yl)thiophene-2-carboxamide]	101%	94.3%	90.8%	–	–	–
